Source: patent US20110092476A1, “Bicycloheteroaryl compounds as P2X7 modulators and uses thereof” (Renovis, Inc., priority 2006, published 2011)

What follows are compounds tested against T1, P2X7 receptor (Homo sapiens, UniProt Q99572) (assay: IL-1β release assay in differentiated THP-1 cells stimulated with BzATP (Example 9)). Conditions: 0.3 μM compound; differentiated THP-1 cells, BzATP 250 uM; "+" symbols; read-out: IL-1β % Inhib. @ 0.3 or 0.1 uM.
T1 construct: host or cells: THP-1 cells differentiated with LPS and IFN-γ
T1 sequence (Q99572 1-595): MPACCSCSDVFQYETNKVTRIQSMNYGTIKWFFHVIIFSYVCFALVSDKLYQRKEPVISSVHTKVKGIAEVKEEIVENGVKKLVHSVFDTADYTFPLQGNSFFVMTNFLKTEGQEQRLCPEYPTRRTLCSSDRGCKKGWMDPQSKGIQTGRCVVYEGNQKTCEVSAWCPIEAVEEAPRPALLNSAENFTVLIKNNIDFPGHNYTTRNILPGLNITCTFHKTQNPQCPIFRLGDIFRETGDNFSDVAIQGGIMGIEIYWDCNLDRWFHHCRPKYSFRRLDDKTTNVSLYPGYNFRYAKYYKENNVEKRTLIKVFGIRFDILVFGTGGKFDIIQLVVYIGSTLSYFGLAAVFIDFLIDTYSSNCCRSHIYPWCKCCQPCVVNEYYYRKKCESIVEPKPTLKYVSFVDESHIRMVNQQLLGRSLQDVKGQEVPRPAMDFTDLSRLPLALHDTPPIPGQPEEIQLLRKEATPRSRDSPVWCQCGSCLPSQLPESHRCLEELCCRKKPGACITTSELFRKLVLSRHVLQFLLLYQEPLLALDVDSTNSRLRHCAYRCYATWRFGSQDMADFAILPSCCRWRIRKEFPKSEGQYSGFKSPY
Format: cell-based
Summary of the method: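 IC50 derived by four-parameter logistic fit of percent inhibition of IL-1β release (ELISA, background-adjusted). Release triggered by 45 min BzATP at 250 uM final after 30 min compound pretreatment of THP-1 cells previously differentiated 16 h (LPS, IFN-γ, 100 ng/mL each) and re-primed 2 h with LPS.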

inhibition at 0.3 µM [%]	Structure (SMILES)
26 to 50	C[C@H](C(N)=O)n1ccc2c(NC(=O)Cc3c(F)cccc3C(F)(F)F)cccc2c1=O [Compound 286]
26 to 50	C[C@H](C(N)=O)n1ccc2c(NC(=O)Cc3ccc(C#N)cc3)cccc2c1=O [Compound 287]
0 to 25	C[C@H](C(N)=O)n1ccc2c(NC(=O)Cc3cccc(C#N)c3)cccc2c1=O [Compound 288]
> 76	C[C@H](C(N)=O)n1ccc2c(NC(=O)Cc3ccc(F)cc3Cl)cccc2c1=O [Compound 291]
0 to 25	C[C@H](C(N)=O)n1ccc2c(NC(=O)Cc3c(F)cccc3F)cccc2c1=O [Compound 292]
> 76	C[C@H](C(N)=O)n1ccc2c(NC(=O)Cc3ccc(C(F)(F)F)cc3F)cccc2c1=O [Compound 296]
> 76	CC(C(=O)Nc1cccc2c(=O)n([C@H](C)C(N)=O)ccc12)c1ccc(F)cc1 (stereo partly drawn) [Compound 299]
> 76	C[C@H](C(N)=O)n1ccc2c(NC(=O)Cc3ccc(F)c(F)c3)cccc2c1=O [Compound 303]
0 to 25	C[C@H](C(N)=O)n1ccc2c(NC(=O)Cc3ccccn3)cccc2c1=O [Compound 309]
0 to 25	C[C@@H](C(N)=O)n1ccc2c(NC(=O)Cc3ccc(Cl)nc3)cccc2c1=O [Compound 310]
0 to 25	C[C@H](C(N)=O)n1ccc2c(NC(=O)Cc3ccc(Cl)nc3)cccc2c1=O [Compound 312]
51 to 75	C[C@@H](CO)n1ccc2c(NC(=O)Cc3ccc(C(F)(F)F)cc3)cccc2c1=O [Compound 318]
26 to 50	C[C@H](C(=O)Nc1cccc2c(=O)n([C@H](C)C(=O)O)ccc12)c1ccc(Cl)cc1 [Compound 322, (R)-2-{5-[(S)-2-(4-Chloro-phenyl)-propionylamino]-1-oxo-1H-isoquinolin-2-yl}-propionic acid]
51 to 75	CC(C)[C@H](C(=O)O)n1ccc2c(NC(=O)[C@@H](C)c3ccc(Cl)cc3)cccc2c1=O [Compound 323, (R)-2-{5-[(S)-2-(4-Chloro-phenyl)-propionylamino]-1-oxo-1H-isoquinolin-2-yl}-3-methyl-butyric acid]
51 to 75	C[C@H](C(=O)Nc1cccc2c(=O)n([C@@H](C)CO)ccc12)c1ccc(Cl)c(Cl)c1 [Compound 326]
> 76	C[C@H](CO)n1ccc2c(NC(=O)Cc3ccc(Cl)cc3F)cccc2c1=O [Compound 327]
51 to 75	C[C@@H](CO)n1ccc2c(NC(=O)Cc3ccc(Cl)cc3F)cccc2c1=O [Compound 328]
51 to 75	C[C@@H](CO)n1ccc2c(NC(=O)Cc3ccc(F)c(Cl)c3)cccc2c1=O [Compound 331]
> 76	C[C@@H](CO)n1ccc2c(NC(=O)Cc3ccc(C(F)(F)F)c(F)c3)cccc2c1=O [Compound 336]
> 76	C[C@@H](CO)n1ccc2c(NC(=O)Cc3ccc(F)c(C(F)(F)F)c3)cccc2c1=O [Compound 338]
> 76	C[C@H](C(=O)Nc1c(Cl)ccc2c(=O)n([C@H](C)C(N)=O)ccc12)c1ccc(Cl)cc1 [Compound 340]
26 to 50	C[C@H](C(N)=O)n1ccc2c(NC(=O)Cc3ccc(Cl)cc3F)c(Cl)ccc2c1=O [Compound 343]
> 76	C[C@@H](C(N)=O)n1ccc2c(NC(=O)Cc3ccc(F)c(Cl)c3)cccc2c1=O [Compound 346]
> 76	C[C@@H](C(N)=O)n1ccc2c(NC(=O)Cc3ccc(C(F)(F)F)c(F)c3)cccc2c1=O [Compound 347]
> 76	C[C@@H](C(N)=O)n1ccc2c(NC(=O)Cc3cccc(C(F)(F)F)c3F)cccc2c1=O [Compound 349]
> 76	O=C(Cc1ccc(Cl)c(F)c1)Nc1cccc2c(=O)n(CCO)ccc12 [Compound 354]
> 76	CC(C(=O)Nc1cccc2c(=O)n([C@@H](C)C(N)=O)ccc12)c1cccc(C(F)(F)F)c1F (stereo partly drawn) [Compound 355]
> 76	CC(C(=O)Nc1cccc2c(=O)n([C@@H](C)C(N)=O)ccc12)c1ccc(Cl)c(C(F)(F)F)c1 (stereo partly drawn) [Compound 356]
0 to 25	COc1ccc2c(=O)n([C@H](C)CO)ccc2c1NC(=O)Cc1ccc(C(F)(F)F)c(F)c1 [Compound 358]

More lines, now with the values behind:

Structure (SMILES)	inhibition at 0.3 µM [%]
CC(C)[C@H](C(=O)NC1CC1)n1ccc2c(NC(=O)[C@@H](C)c3ccc(Cl)cc3)cccc2c1=O [Compound 281, (R)-2-{5-[(S)-2-(4-Chloro-phenyl)-propionylamino]-1-oxo-1H-isoquinolin-2-yl}-N-cyclopropyl-3-methyl-butyramide]	> 76
CC(C)[C@H](C(=O)NC1CC1)n1ccc2c(NC(=O)[C@H](C)c3ccc(Cl)cc3)cccc2c1=O [Compound 282]	> 76
C[C@H](C(N)=O)n1ccc2c(NC(=O)Cc3ccc(-c4ccccc4)cc3)cccc2c1=O [Compound 289]	> 76
C[C@H](C(N)=O)n1ccc2c(NC(=O)Cc3ccc(F)cc3F)cccc2c1=O [Compound 293]	> 76
C[C@H](C(N)=O)n1ccc2c(NC(=O)Cc3ccccc3F)cccc2c1=O [Compound 294]	26 to 50
C[C@H](C(N)=O)n1ccc2c(NC(=O)Cc3ccc(F)cc3C(F)(F)F)cccc2c1=O [Compound 295]	51 to 75
C[C@H](C(N)=O)n1ccc2c(NC(=O)Cc3cccc(C(F)(F)F)c3)cccc2c1=O [Compound 297]	> 76
Cc1ccc(CC(=O)Nc2cccc3c(=O)n([C@H](C)C(N)=O)ccc23)cc1F [Compound 302]	> 76
C[C@H](C(N)=O)n1ccc2c(NC(=O)Cc3cc(F)c(F)cc3F)cccc2c1=O [Compound 305]	> 76
C[C@H](C(=O)Nc1cccc2c(=O)n([C@H](C)C(=O)NC3CC3)ccc12)c1ccc(Cl)cc1 [Compound 308, (R)-2-{5-[(S)-2-(4-Chloro-phenyl)-propionylamino]-1-oxo-1H-isoquinolin-2-yl}-N-cyclopropyl-propionamide]	51 to 75
C[C@H](C(N)=O)n1ccc2c(NC(=O)Cc3ccc(OC(F)(F)F)cc3)cccc2c1=O [Compound 311]	51 to 75
C[C@H](C(N)=O)n1ccc2c(NC(=O)Cc3cccc(OC(F)(F)F)c3)cccc2c1=O [Compound 313]	0 to 25
C[C@H](C(N)=O)n1ccc2c(NC(=O)Cc3ccc(Cl)cc3Cl)cccc2c1=O [Compound 314]	> 76
C[C@H](C(=O)Nc1cccc2c(=O)n(C(C(N)=O)c3ccc(Cl)cc3)ccc12)c1ccc(Cl)cc1 (stereo partly drawn) [Compound 315, (S)—N-{2-[Carbamoyl-(4-chloro-phenyl)-methyl]-1-oxo-1,2-dihydro-isoquinolin-5-yl}-2-(4-chloro-phenyl)-propionamide]	51 to 75
C[C@@H](C(=O)Nc1cccc2c(=O)n([C@@H](C)CO)ccc12)c1ccc(Cl)c(Cl)c1 [Compound 317]	> 76
C[C@H](C(=O)Nc1cccc2c(=O)n([C@H](C)CO)ccc12)c1ccc(Cl)c(Cl)c1 [Compound 321]	> 76
C[C@@H](CO)n1ccc2c(NC(=O)Cc3cccc(C(F)(F)F)c3F)cccc2c1=O [Compound 325]	> 76
C[C@H](CO)n1ccc2c(NC(=O)Cc3ccc(F)c(Cl)c3)cccc2c1=O [Compound 329]	51 to 75
C[C@@H](CO)n1ccc2c(NC(=O)Cc3ccc(Cl)c(Cl)c3)cccc2c1=O [Compound 332]	> 76
C[C@@H](CO)n1ccc2c(NC(=O)Cc3ccc(Cl)c(F)c3)cccc2c1=O [Compound 334]	51 to 75
O=C(Cc1ccc(F)c(Cl)c1)Nc1cccc2c(=O)n(CCO)ccc12 [Compound 341]	> 76
COc1ccc2c(=O)n([C@H](C)C(N)=O)ccc2c1NC(=O)Cc1ccc(C(F)(F)F)cc1 [Compound 344, (R)-2-{6-Methoxy-1-oxo-5-[2-(4-trifluoromethyl-phenyl)-acetylamino]-1H-isoquinolin-2-yl}-propionamide]	> 76
C[C@@H](C(N)=O)n1ccc2c(NC(=O)Cc3ccc(F)c(C(F)(F)F)c3)cccc2c1=O [Compound 348]	> 76
C[C@@H](C(N)=O)n1ccc2c(NC(=O)Cc3ccc(Cl)cc3F)cccc2c1=O [Compound 350]	> 76
C[C@@H](C(N)=O)n1ccc2c(NC(=O)Cc3ccc(Cl)c(F)c3)cccc2c1=O [Compound 352]	> 76
CC(C)(CO)n1ccc2c(NC(=O)Cc3ccc(C(F)(F)F)cc3)cccc2c1=O [Compound 363]	51 to 75

Same assay, conditions: THP-1, read-out: IL-1β % Inhib. @ 0.3 or 0.1 uM

Structure (SMILES)	inhibition at 0.3 µM [%]
C[C@@H](C(N)=O)n1ccc2c(NC(=O)Cc3ccc(C(F)(F)F)cc3)c(Cl)ccc2c1=O [Compound 345, (S)-2-{6-Chloro-1-oxo-5-[2-(4-trifluoromethyl-phenyl)-acetylamino]-1H-isoquinolin-2-yl}-propionamide]	> 76

Same assay, conditions: THP-1 cells, BzATP 250 uM, IL-1β by ELISA

IC50 [nM]	Structure (SMILES)
150	C[C@H](C(N)=O)n1ccc2c(NC(=O)Cc3ccc(OC(F)(F)F)cc3)cccc2c1=O [Compound 311]
